Square brackets hold non-standard residues; d marks the D form. Peptide text beside a SMILES is read from it. * marks the point of attachment. Biotin = O=C1N[C@H]2[C@H](CS[C@H]2CCCCC(=O)*)N1; Ahx = NCCCCCC(=O)O

One data set has as its system cornea. In words: In vivo peptide toxicity, cornea. On the set-up: species or system BALB/C mice. As to the method: (i) Cornea: Four-6-week-old female BALB/C mice (Harlan Sprague Dawley, Indianapolis, Ind.) were anesthetized by halothane inhalation (3-5%). A 2.0 μL drop of serum-free 5×DMEM solution containing 6.1 mM EB, 6.1 mM EBX, 7.5 mM TAT-C, 7.5 mM n50,51 TAT-C, 7.5 mM TAT-Cd, or 11.2 mM bHOMd or serum-free DMEM only (control) was then placed on the cornea and the mice were returned to their cages. Each group consisted of 5 mice, except for 11.2 mM bHOMd, and 7.5 mM TAT-Cd, which consisted of 4 mice. Only the right eye in each mouse received the peptide. Treatments were given 4 times per day at least 2 hrs apart for 7 days. On days 1, 5, and 7, the mice were examined microscopically for evidence of blepharitis, punctate keratopathy, dendrite ulceration and geographic ulceration. Damage to the corneal epithelium was assessed by staining with 1.0% […] and examination under a microscope with blue light. Blepharitis was scored: 1+ for noticeable puffy eyelids, 2+ for puffy eyelids with moderate crusting, 3+ for eye 50% swollen shut with severe crusting, and 4+ for eye totally swollen and crusted shut (Brandt et al., 1992). Punctate keratopathy, dendrite ulceration, and geographic ulceration were scored: 1+ for <25% of the cornea involved, 2+ for 25-50% involved, 3+ for 50-75% involved, and 4+ for >75% involved. The mean disease score for each group of mice on each day was calculated by the sum of disease scores in each group on each day divided by the numbers of mice in that group. On day 7, following the last treatment, the mice were sacrificed and the eyes were removed, fixed in 10% formalin, embedded in paraffin, sectioned (5μ each), and stained with hematoxylin and eosin as we have described previously (Brandt et al., 1996). Sections were then examined for evidence of damage to the cornea, sclera, lens, and retina.

The test system of data set [1] is influenza A virus (Sydney 05/97,H3N2).
A short description of another data set: in vitro. Conditions: African green monkey.
The subject of data set [2] is HSV-1 KOS. Kind of data set: Plaque reduction assay. In kind it is cell-based. As to the method:
Cell culture and virus: The procedures for growing Vero cells and preparing high titer stocks of HSV-1 KOS as described in Grau et al., Invest. Ophthal. and Vis. Sci. 30: 2474 (1989) were utilized. Vero cells were maintained in carbonate-buffered DMEM supplemented with 5% calf serum and 5% fetal bovine serum (regular medium). For some studies, cells were switched to serum-free DMEM buffered with 25 mM HEPES (pH 7.4) and allowed to adapt to that medium for 30 min prior to experimental treatments. Vero cells were seeded into wells (0.28 cm^2) of microtiter plates either at 3.5×10^4 cells/well for use 1 day later (8×10^4 cells/well) or at 1×10^4 cells/well for use 3 days later (2×10^5 cells/well).
Plaque reduction assay: Confluent Vero cell cultures in microtiter plates were infected for 1 hour at 37° C. in 40 μL of medium. Except where indicated, peptide treatments in 40 μL of medium lasted from 1 hour before through 1 hour after infection. At the end of the adsorption period, the cultures were re-fed with 100 μL of regular medium. Plaque formation was scored 2 days later and the number of plaques scored per well was normalized to the number counted in the absence of peptide. Using an ocular micrometer, plaque size (π/2×L×S) was determined by measuring the largest plaque diameter (L) and the diameter at a 90° angle to that (S). The size of each of the first 40 scored plaques was measured except when a plaque included less than 10 rounded cells or touched the side of the well.

Data set [3] relates to HSV-1 KOS. Conditions: data not shown.
The subject of a further data set is HSV-1 KOS mutant hrR3. Kind of data set: LacZ+ virus (hrR3) entry assay with pre-adsorbed virus (entry block). In kind it is cell-based. As to conditions: FIG. 7B; read-out: inhibition of entry of pre-adsorbed virus IC50. As to the method: LacZ^+ virus (hrR3) entry assay: Confluent Vero cell cultures in 96-well microtiter plates were switched to Hepes-buffered serum-free DMEM, cooled on ice to 4° C. for 30 min, and infected with hrR3 for 1 hour at 4° C. in 40 μL of medium. Unattached virus was removed by rinsing with ice-cold medium. Treatments with antiviral peptide SEQ ID NO:1, referred to as EB, or a control peptide which comprised the RRKK tetra-peptide (SEQ ID NO:16) attached to a scrambled version of the membrane transiting peptide RRKKLAALPLVLAAPLAVLA (SEQ ID NO:17) (referred to as EBX), or mock-treatments with peptide-free medium were carried out in serum-free DMEM as indicated. Virus entry was initiated by transferring cultures to 37° C. To inactivate any remaining extracellular virus, cultures were rinsed with PBS and exposed to low pH citrate buffer (40 mM citric acid, 10 mM KCl, 135 mM NaCl, pH 3.0, according to Highlander et al., J. Virol. 61:3356 (1987), for 1 min at 23° C. The citrate was rinsed off with PBS and cultures were maintained in serum-supplemented DMEM until they were fixed with 0.5% gluteraldehyde in 5×PBS for 30 min at 23° C., stained for β-galactosidase activity for 1 hour or overnight at 23° C. with X-gal (Fisher Biotech; BP1615-1) in 1×PBS containing […], 1.3 mM K4Fe(CN)6, and 1.3 mM K3Fe(CN)6, and scored for the presence of blue […] cells.
In these studies, the hrR3 virus was pre-adsorbed to cells for 1 hour at 4° C. before ice cold 25 μM EB or EBX were added in serum-free DMEM. After an additional 1 hour at 4° C., cultures were shifted to 37° C. to initiate virus entry. At 15 min intervals following the temperature shift, any virus remaining outside the cells was inactivated by washing the cultures with low pH citrate buffer. Cultures were then rinsed and returned to peptide-free serum-supplemented DMEM until they were fixed and stained for β-galactosidase 8 hours after the temperature shift.
Two assays were used to assess the ability of the TAT peptides to inhibit infection of Vero cells with the hrR3 virus. In both assays, the virus was preadsorbed to cells at 4° C. and entry was initiated in the presence of peptide by shifting the cultures to a permissive temperature (30-37° C.). One hour later, the peptide was rinsed off. The entry blocking activity was measured in half of the cultures, in which any extracellular virus remaining after the peptide treatment was inactivated with low pH citrate buffer. The rest of the cultures were exposed to PBS instead of citrate buffer and used to measure virus inactivation. Virus inactivation depended on persistent effects of the peptide lasting for a period of eight hours. At the end of that period, all cultures were fixed and infected cells were detected by staining with X-gal.
Virus (m.o.i.=0.025) was preadsorbed to Vero cells for 1 h at 4° C. before cultures were exposed to TAT-C (FIG. 15A), bTAT-9X (FIG. 15B), or n50,51TAT-C (FIGS. 15C, 15D) for 1 h at 33 (FIGS. 15A, 15B), 31 (FIG. 15C), or 37° C. (FIG. 15D). […] Inhibition of entry was measured in the citrate-treated cultures, in which any remaining external virus was inactivated immediately following exposure to peptide (●). Persistent virus inactivation lasting, at least in part, for the 8 h period following exposure to peptide, was measured in the PBS-treated cultures (◯). The IC50s measured in these experiments are included in Table 5.

In data set [4] the test system is Vero, HeLa, CV-1PD, TM-1, DP-9, CEMx174, NIKS, W12E cells. Kind of data set: MTS assay, eight cell lines. Conditions: eight cell lines.

With `CC[C@@H](C)[C@@H](NC(=O)[C@@H](CCCCN)NC(=O)[C@H](NC(=O)[C@@H](CCC(N)=O)NC(=O)[C@@H](CCCNC(=N)N)NC(=O)CCCCCNC(=O)CCCC[C@@H]1SC[C@@H]2NC(=O)N[C@@H]21)[C@H](C)CC)C(=O)N[C@H](Cc1c[nH]c2ccccc12)C(=O)N[C@H](Cc1ccccc1)C(=O)N1CCC[C@@H]1C(=O)N[C@H](CC(N)=O)C(=O)N[C@H](CCCNC(=N)N)C(=O)N[C@H](CCCNC(=N)N)C(=O)N[C@H](CCSC)C(=O)N[C@H](CCCCN)C(=O)N[C@H](Cc1c[nH]c2ccccc12)C(=O)N[C@H](CCCCN)C(=O)N[C@H](CCCCN)C(N)=O` [bHOMd, b - RQIKIWFPNRRMKWKK-amide] ({Biotin-Ahx}-[dR][dQ][dI][dK][dI][dW][dF][dP][dN][dR][dR][dM][dK][dW][dK][dK]-NH2), the punctate keratopathy entry with cornea (calcein staining) is recorded as “very mild punctate keratopathy”. In addition, in the data set with cornea (four times a day for seven days), the blepharitis entry is given as “mild blepharitis”. For the same molecule, in data set [1], the “antiviral effect against influenza A virus versus cytotoxic effects” value was “blocks influenza A virus in the absence of cytotoxic effects”. Moreover, the “cytotoxic effects (trypan blue staining)” value in the data set on MDCK cells is on record as “No cytotoxic effects”.
In the case of `CC(C)C[C@H](NC(=O)[C@H](C)NC(=O)[C@H](CCCCN)NC(=O)[C@H](CC(C)C)NC(=O)[C@H](C)NC(=O)[C@H](CC(C)C)NC(=O)[C@H](CCCCN)NC(=O)[C@H](CC(C)C)NC(=O)[C@H](C)NC(=O)[C@H](CC(C)C)NC(=O)[C@H](CCCCN)NC(=O)CCCCCNC(=O)CCCC[C@@H]1SC[C@@H]2NC(=O)N[C@@H]21)C(=O)N[C@@H](CCCCN)C(=O)N[C@@H](C)C(=O)N[C@@H](C)C(=O)N[C@@H](CC(C)C)C(=O)N[C@@H](CCCCN)C(=O)N[C@@H](CC(C)C)C(=O)N[C@@H](C)C(N)=O` [bKLA, b - KLALKLALKALKAALKLA-amide], the “cytotoxic effects (trypan blue staining)” value in the data set with MDCK cells is “No cytotoxic effects”. Also, in the data set “in vitro”, the IC50 was 15 µM.
On to “NH2 - RRKKAAVALLAVLLALLAPP-COOH (H-RRKKAAVALLAVLLALLAPP-OH) [EBPP]”, for which the “antiviral activity compared to EB” value in the data set with HSV-1 KOS [2] was “twice as active”. Further, in the data set on HSV-1 KOS [3], the “activity compared to EB in yield reduction assay” value is “twice as active”.
For the molecule `CC(C)C[C@H](NC(=O)[C@H](CCCCN)NC(=O)[C@H](CCCCN)NC(=O)[C@H](CCCNC(=N)N)NC(=O)[C@@H](N)CCCNC(=N)N)C(=O)N[C@@H](C)C(=O)N[C@@H](C)C(=O)N[C@@H](CC(C)C)C(=O)N1CCC[C@H]1C(=O)N[C@@H](CC(C)C)C(=O)N[C@H](C(=O)N[C@@H](CC(C)C)C(=O)N[C@@H](C)C(=O)N[C@@H](C)C(=O)N1CCC[C@H]1C(=O)N[C@@H](CC(C)C)C(=O)N[C@@H](C)C(=O)N[C@H](C(=O)N[C@@H](CC(C)C)C(=O)N[C@@H](C)C(=O)O)C(C)C)C(C)C` [EBX, RRKKLAALPLVLAAPLAVLA, reference compound] (H-RRKKLAALPLVLAAPLAVLA-OH), the IC50 with HSV-1 KOS mutant hrR3 is around 100 µM. Moreover, in the data set on cornea (mouse, in vivo), the corneal pathology entry is listed as “no evidence of corneal pathology”. In addition, the cytotoxic effects entry with Vero cells is “No cytotoxic effects”. The “cytotoxicity to cells (MTS), overall” value in data set [4] is “generally not cytotoxic”.
`CC[C@H](C)[C@H](NC(=O)[C@H](CCCCN)NC(=O)[C@@H](NC(=O)[C@H](CCC(N)=O)NC(=O)[C@H](CCCNC(=N)N)NC(=O)CCCCCNC(=O)CCCC[C@@H]1SC[C@@H]2NC(=O)N[C@@H]21)[C@@H](C)CC)C(=O)N[C@@H](Cc1c[nH]c2ccccc12)C(=O)N[C@@H](Cc1ccccc1)C(=O)N1CCC[C@H]1C(=O)N[C@@H](CC(N)=O)C(=O)N[C@@H](CCCNC(=N)N)C(=O)N[C@@H](CCCNC(=N)N)C(=O)N[C@@H](CCSC)C(=O)N[C@@H](CCCCN)C(=O)N[C@@H](Cc1c[nH]c2ccccc12)C(=O)N[C@@H](CCCCN)C(=O)N[C@@H](CCCCN)C(=O)N1CCC[C@H]1C(=O)NCC(=O)N[C@@H](Cc1ccc(O)cc1)C(=O)N[C@@H](C)C(=O)NCC(=O)N[C@@H](C)C(=O)N[C@H](C(=O)N[C@H](C(=O)N[C@@H](CC(N)=O)C(=O)N[C@@H](CC(=O)O)C(=O)N[C@@H](CC(C)C)C(=O)O)C(C)C)C(C)C` [bHOM-9, b - RQIKIWFPNRRMKWKK-9] ({Biotin-Ahx}-RQIKIWFPNRRMKWKKPGYAGAVVNDL-OH): the “antiviral effect against influenza A virus versus cytotoxic effects” value in data set [1] was “antiviral and cytotoxic effects were inseparable”. This molecule also returned an IC50 in the data set “in vitro” of 50 µM.

The values above are taken from patent US7432045B2 (priority 2003, dated 2008).
